Experiments:
[1] = test system: Pythium aphanidermatum; assay: Contact evaluation (microtiter plate); type: cell-based
Experimental: (§1) Compound solution: Contact evaluations were conducted to determine the anti-fungal activity of each compound against Botrytis cinerea, Sclerotinia sclerotiorum, Pythium aphanidermatum, Rhizoctonia solani, Cercospora arachidicola, Mycosphaerella fijiensis, and Monilinia laxa. Five milligrams of each compound were dissolved in 0.5 milliliter of DMSO for a compound stock solution of 1.0% w/v. Compound stock solutions were serial diluted with DMSO to 20, 10, and 2 ppm final well concentration.
(§2) Fungi preparation: Botrytis cinerea spores were taken from 6-week-old cultures grown at 22 C on full strength potato dextrous agar (PDA) plates. Sclerotinia sclerotiorum, Pythium aphanidermatum, Rhizoctonia solani, and Monilinia laxa mycelia were taken from 4- to 10-day-old shake flask cultures grown at room temperature on full strength potato dextrous broth (PDB). Cercospora arachidicola mycelia were taken from 10- to 14-day-old shake flask cultures grown at room temperature on a full strength PDB amended with peanut oil. Mycosphaerella fijiensis mycelia were taken from 10- to 14-day-old shake flask cultures grown at room temperature on V8 juice broth. Sclerotinia sclerotiorum, Pythium aphanidermatum, Rhizoctonia solani, Cercospora arachidicola, and Mycosphaerella fijiensis mycelia (0.4 g mycelia) were blended for 45 seconds in 20 mL sterile de-ionized water. Monilinia laxa mycelia (1 g mycelia) was blended for 45 seconds in 30 mL of sterile de-ionized water. Botrytis cinerea spores were diluted with quarter strength PDB to 1×10^5 spores/mL final well concentration. All mycelia were diluted in water (1:5 mycelia:water) before distributing into the wells.
(§3) Microtiter plate preparation: Compound solution (10 :L), quarter strength PDB (900 :L) and fungi preparation (100 :L) were sequentially distributed into 48-well microtiter plates (n=3 replications/compound/rate). A blank consisted of quarter strength PDB and fungi preparation. Commercial fungicide controls (100 ppm diluted with water) consisted of Scala for Botrytis cinerea, Dithane F-45 for Mycosphaerella fijiensis, and Benlate for Sclerotinia sclerotiorum, Pythium aphanidermatum, Rhizoctonia solani, Cercospora arachidicola, and Monilinia laxa. Plates were shaken in a circular rotator at room temperature for 20 minutes, then incubated at 25 C for 24 to 72 hours, depending on the pathogen.
(§4) Fungal control ratings: Fungal growth in wells containing the compounds were compared to the positive control and fungal inhibition was rated as full, partial, or none. Final readings were the average of the three wells (Table 1).

[2] = test system: Rhizoctonia solani; assay: Contact evaluation (microtiter plate); type: cell-based; settings: Rhizoctinia solani
Experimental: as §1, §2, §3, §4

[3] = test system: Cercospora arachidicola; assay: Contact evaluation (microtiter plate); type: cell-based
Experimental: as §1, §2, §3, §4

[4] = test system: Botrytis cinerea; assay: Contact evaluation (microtiter plate); type: cell-based
Experimental: as §1, §2, §3, §4

[5] = test system: Sclerotinia sclerotiorum; assay: Contact evaluation (microtiter plate); type: cell-based; settings: Sclerotinia sclerotionum
Experimental: as §1, §2, §3, §4

[6] = test system: Monilinia laxa; assay: Contact evaluation (microtiter plate); type: cell-based
Experimental: as §1, §2, §3, §4

[7] = test system: Mycosphaerella fijiensis; assay: Contact evaluation (microtiter plate); type: cell-based
Experimental: as §1, §2, §3, §4

[8] = test system: Phaseolus vulgaris (Bush bean cv. Blue Lake 274) leaves; assay: Detached bean leaf bioassay, phytotoxicity rating; type: in vivo; settings: 200 ppm on detached bean leaf; rated no, slight, moderate or excessive phytotoxicity
Experimental: Compound solution: Compound solutions were prepared by diluting compound stock solutions (1.0% w/v compound in DMSO) to 200 ppm with 0.01% w/v Triton X-100. Plant material: Middle trifoliate leaves of greenhouse grown Phaseolus vulgaris (Bush bean cv. Blue Lake 274) were excised and placed on a plastic grid above a tray containing moist towels. Treatment method: One half of the adaxial surface of the leaf was treated with the compound solution (100 :L) using a 3 cm Bacti Cell Spreader. A blank consisted of 0.01% w/v Triton X-100. A commercial fungicide control (200 ppm diluted with water) consisted of Scala. After the solutions dried, the trays containing the leaves were covered and held one day in a growth chamber (22 C). The adaxial surfaces of the leaves were then inoculated with 5-60 :L droplets of Botrytis cinerea spore solution. Phytotoxicity ratings: Phytotoxicity was rated as 0=no phytotoxicity, 1=slight phytotoxicity, 2=moderate phytotoxicity, or 3=excessive phytotoxicity (Table 2).

[9] = test system: Botrytis cinerea; assay: Detached bean leaf bioassay, fungal control; type: in vivo; settings: 200 ppm on detached bean leaf; 100 minus percent necrotic area, three days after inoculation
Experimental: Compound solution: Compound solutions were prepared by diluting compound stock solutions (1.0% w/v compound in DMSO) to 200 ppm with 0.01% w/v Triton X-100. Spore solution preparation: Botrytis cinerea spores were taken from 6-week-old cultures grown at 22 C on full strength potato dextrous agar (PDA) plates and harvested in 1:16 frozen orange juice concentrate:water. Botrytis cinerea spore solutions were prepared by diluting spore cultures to 5×10^4 spores/mL with 1:16 frozen orange juice concentrate:water. Plant material: Middle trifoliate leaves of greenhouse grown Phaseolus vulgaris (Bush bean cv. Blue Lake 274) were excised and placed on a plastic grid above a tray containing moist towels. Treatment method: One half of the adaxial surface of the leaf was treated with the compound solution (100 :L) using a 3 cm Bacti Cell Spreader. A blank consisted of 0.01% w/v Triton X-100. A commercial fungicide control (200 ppm diluted with water) consisted of Scala. […] Fungal control rating: Three days after inoculation with Botrytis, the percent necrotic area under the inoculation droplet was determined. Since the areas under the blank (0.01% w/v Triton X-100) were 100% infected, fungal control was expressed as 100 minus the percent necrotic area, and thus 0% infected is 100% fungal control (n=3 leaves/compound, 5 inoculation droplets/leaf, Table 2).

OCCOc1c(Br)cc(Br)c2cccnc12 [Example 1, 5,7-dibromo-8-(2-hydroxyethoxy) quinoline]
100%: Botrytis cinerea control (200 ppm) [9]
Slight: Phytotoxity (200 ppm) [8]
128 to 131 °C: melting point
None: Control of fungi (full, partial, none) ([3]; fungicide rate 2 ppm)
Full: Control of fungi (full, partial, none) ([1]; fungicide rate 2 ppm) | Control of fungi (full, partial, none) ([1]; fungicide rate 10 ppm) | Control of fungi (full, partial, none) ([1]; fungicide rate 20 ppm) | Control of fungi (full, partial, none) ([2]; fungicide rate 2 ppm) | Control of fungi (full, partial, none) ([2]; fungicide rate 10 ppm) | Control of fungi (full, partial, none) ([2]; fungicide rate 20 ppm) | Control of fungi (full, partial, none) ([3]; fungicide rate 10 ppm) | Control of fungi (full, partial, none) ([3]; fungicide rate 20 ppm) | Control of fungi (full, partial, none) ([4]; fungicide rate 10 ppm) | Control of fungi (full, partial, none) ([4]; fungicide rate 20 ppm) | Control of fungi (full, partial, none) ([5]; fungicide rate 2 ppm) | Control of fungi (full, partial, none) ([5]; fungicide rate 10 ppm) | Control of fungi (full, partial, none) ([5]; fungicide rate 20 ppm) | Control of fungi (full, partial, none) ([6]; fungicide rate 2 ppm) | Control of fungi (full, partial, none) ([6]; fungicide rate 10 ppm) | Control of fungi (full, partial, none) ([6]; fungicide rate 20 ppm) | Control of fungi (full, partial, none) ([7]; fungicide rate 2 ppm) | Control of fungi (full, partial, none) ([7]; fungicide rate 10 ppm) | Control of fungi (full, partial, none) ([7]; fungicide rate 20 ppm)
Partial: Control of fungi (full, partial, none) ([4]; fungicide rate 2 ppm)

— patent US20070270461A1, “Fungicide” (Valent BioSciences Corporation, priority 2006, published 2007)
